The Kinase Knowledgebase extract (Sharma et al. 2016)
pIC50: −log10 of the molar value.

What was measured:
MAPK14 (human) [1] = biological target: MAPK14 (human) (UniProt Q16539); assay: Inhibition of TNF Production (PBMC)
MAPK14 (human) [2] = biological target: MAPK14 (human) (UniProt Q16539); assay: Inhibition of TNF Production (U937 Cells)
MAPK14 = MAPK14 (UniProt Q16539); assay: p38 alpha Inhibition
Chain of MAPK14 (Q16539 whole entry, looked up): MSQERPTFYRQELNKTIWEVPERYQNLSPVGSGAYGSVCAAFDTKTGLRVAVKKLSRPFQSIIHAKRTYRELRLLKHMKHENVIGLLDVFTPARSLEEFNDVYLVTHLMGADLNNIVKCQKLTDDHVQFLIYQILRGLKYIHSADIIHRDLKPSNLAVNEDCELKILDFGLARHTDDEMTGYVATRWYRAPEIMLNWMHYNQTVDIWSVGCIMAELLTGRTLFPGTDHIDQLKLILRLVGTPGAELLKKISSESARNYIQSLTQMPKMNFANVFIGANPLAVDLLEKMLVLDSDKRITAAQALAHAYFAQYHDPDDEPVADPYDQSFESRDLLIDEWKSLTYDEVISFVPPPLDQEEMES

Chain of MAPK14 (human) (Q16539 whole entry, looked up): as above

| Compound | ID50 (MAPK14 (human) [1]) [µM] | pIC50 (MAPK14 (human) [2]) | pIC50 (MAPK14 (human) [1]) | pIC50 (MAPK14) |
| --- | --- | --- | --- | --- |
| Cc1cc(-c2ccnc(NCCc3ccccc3)c2)n(-c2ccc(Cl)cc2)n1 | 0.1 | 6.07 | – | – |
| Cc1cccc(-n2nc(C)cc2-c2ccnc(N(C)Cc3ccccc3)c2)c1 | – | 5.00 | < 5.00 | – |
| Cc1cc(-c2ccnc(Cl)c2)n(-c2cccc(F)c2)n1 | – | < 5.00 | – | – |
| Cc1cc(-c2ccnc(NCc3ccccc3)c2)n(-c2ccc(Cl)cc2)n1 | – | 6.70 | 6.52 | – |
| Cc1cccc(-n2nc(C)cc2-c2ccnc(NCc3ccccc3)c2)c1 | – | – | 7.00 | – |
| Cc1cnn(Cc2ccccc2)c1-c1ccncc1 | – | – | < 5.00 | – |
| Cc1cc(-c2ccnc(NCCO)c2)n(-c2ccc(Cl)cc2)n1 | – | 6.32 | 7.00 | – |
| Cc1ccc(-n2nc(C)cc2-c2ccnc(NCc3cccnc3)c2)cc1 | – | – | 5.82 | – |
| Fc1ccc(-n2nccc2-c2ccnc(Cl)c2)cc1 | – | 5.00 | 5.09 | – |
| Cc1cccc(-n2nc(C)cc2-c2ccnc(N)c2)c1 | – | – | 6.30 | – |
| CCNc1cc(-c2ccncc2)n(-c2ccc(F)cc2)n1 | – | 5.00 | < 5.00 | – |
| Cc1cnn(-c2cccc(F)c2)c1-c1ccncc1 | – | – | 5.40 | – |
| CCc1cnn(-c2cccc(F)c2)c1-c1ccncc1 | – | 5.94 | 6.15 | 4.78 |
| Fc1ccc(-n2ncc(N3CCNCC3)c2-c2ccncc2)cc1 | – | 5.00 | < 5.00 | – |
| Cc1cc(-c2ccnc(C#N)c2)n(-c2ccc(F)cc2)n1 | – | < 5.00 | < 5.00 | – |
| Cc1cccc(-n2nc(C)cc2-c2cc[nH]c(=O)c2)c1 | – | 5.00 | 5.62 | – |
| CCNc1cc(-c2cc(C)nn2-c2ccc(C)cc2)ccn1 | – | 6.14 | 6.70 | – |
| Cc1cccc(-n2nc(C)cc2-c2ccnc(NCCc3ccccc3)c2)c1 | – | 7.30 | 7.70 | – |
| Cc1cc(-c2ccnc(NCc3cccnc3)c2)n(-c2cccc(F)c2)n1 | – | – | 6.22 | – |
| Cc1cccc(-n2nc(C)cc2-c2ccnc(N(C)CCc3ccccc3)c2)c1 | – | – | 6.10 | – |
| Fc1ccc(-n2nccc2-c2ccnc(NCc3ccccc3)c2)cc1 | – | 6.62 | 5.89 | – |
| O=C(O)c1cnn(-c2ccc(F)cc2)c1-c1ccncc1 | – | 5.00 | – | – |

| Compound | ID50 (MAPK14 (human) [1]) [µM] | pIC50 (MAPK14 (human) [2]) | pIC50 (MAPK14 (human) [1]) | pIC50 (MAPK14) |
| --- | --- | --- | --- | --- |
| O=C(c1cnn(-c2ccc(F)cc2)c1-c1ccncc1)N1CCNCC1 | – | 5.00 | < 5.00 | – |
| Cc1cccc(-n2nc(C)cc2-c2ccnc(OCc3ccccc3)c2)c1 | – | 5.58 | < 5.00 | – |
| Cc1cc(-c2ccnc(N=[N+]=[N-])c2)n(-c2cccc(F)c2)n1 | – | – | 5.66 | – |
| Cc1cccc(-n2nc(C)cc2-c2ccnc(NCCO)c2)c1 | – | 6.68 | 7.00 | – |
| Cc1cccc(-n2ncc(C)c2-c2ccncc2)c1 | – | 6.18 | 6.22 | – |
| Cc1ccc(-n2nc(C)cc2-c2ccnc(NCCO)c2)cc1 | – | – | 6.70 | – |
| Cc1cnn(-c2ccc(F)cc2)c1-c1ccncc1 | – | 5.00 | 7.00 | – |
| COc1cc(-c2cc(C)nn2-c2cccc(C)c2)ccn1 | – | 5.88 | 5.72 | – |
| COC(=O)c1cnn(-c2ccc(F)cc2)c1-c1ccncc1 | – | 5.00 | – | – |
| Cc1cccc(-n2nc(C)cc2-c2ccnc(N(C)C)c2)c1 | – | 5.00 | 5.47 | – |
| CNc1cc(-c2cc(C)nn2-c2ccc(C)cc2)ccn1 | – | 4.75 | 7.00 | – |
| NC(=O)c1cnn(-c2ccc(F)cc2)c1-c1ccncc1 | – | < 5.00 | < 5.00 | – |
| Cc1ccc(-n2nc(C)cc2-c2ccnc(N(C)C)c2)cc1 | – | – | < 5.00 | – |
| Cc1cccc(-n2nc(C)cc2-c2ccnc(C#N)c2)c1 | – | 5.78 | 5.77 | – |
| Cc1cccc(-n2nc(C)cc2-c2ccnc(C(N)=O)c2)c1 | – | – | 5.30 | – |
| Cc1ccc(-n2nc(C)cc2-c2ccnc(NCc3ccccc3)c2)cc1 | – | – | 5.96 | – |
| Cc1ccc(-n2nc(C)cc2-c2ccnc(Cl)c2)cc1 | – | – | 5.54 | – |
| Cc1cccc(-n2nc(C)cc2-c2ccnc(S(C)(=O)=O)c2)c1 | – | – | < 5.00 | – |
| Fc1ccc(-n2nccc2-c2ccnc(NCCc3ccccc3)c2)cc1 | – | – | 5.00 | – |
| Cc1ccc(-n2nc(C)cc2-c2cccc(N)c2)cc1 | – | – | < 5.00 | – |
| CCCc1cnn(-c2cccc(F)c2)c1-c1ccncc1 | – | 6.08 | 5.89 | 5.83 |
